Source: PMC8986850, “Development and exploration of novel substituted thiosemicarbazones as inhibitors of aldose reductase via in vitro analysis and computational study” (Scientific Reports, 2022)

Assays:
human AKR1B1 (hAKR1B1) = target: T1, human AKR1B1 (hAKR1B1) (Homo sapiens, UniProt P15121); assay: Inhibition of expressed human AKR1B1 (E. coli BL21 (DE3)); type: biochemical; details: for IC50: human AKR1B1 expressed in E. coli BL21 (DE3), mean ± SEM of three measurements
T1 construct: made in house; host or cells: E. coli BL21 (DE3)
Method: For the enzyme inhibition assay, ALR2 and ALR1 were extracted from bovine sources (ALR2 from eyes and ALR1 from kidneys). Moreover, inhibitions studies were also carried out on the expressed ALR2 (human AKR1B1) and inhibition data for ALR2- bovine source and expressed enzyme was compared and analyzed. The protocols for enzyme extraction and expression in the bacterial system are included in the section of “Supporting information”. […] For the purpose of comparison and validation of enzyme inhibition data, these compounds were tested against human AKR1B1 (hAKR1B1) expressed in E. coli BL21 (DE3).
For the determination of enzyme activity of ALR1 and ALR2, 100 µL of reaction mixture was composed of 20 µL of buffer (100 mM sodium phosphate, pH 6.2), 30 µL of enzyme extract, 20 µL of substrate (10 mM), 20 µL of cofactor (0.1 mM of NADPH) and 10 µL of test compound (1 mM)[6],[21]. […] Similar protocols were followed for ALR1 and ALR2, however the substrate was different for each enzyme, with sodium-D-glucoronate and DL-glyceraldehyde used as the substrates for the ALR1 and ALR2 assays, respectively. […] In addition, similar protocols were adopted for human AKR1B1 that was expressed in E. coli BL21 (DE3), though the determined protein concentration was 12 µg/mL for the expressed enzyme. Detailed protocols for the preparation of ALR1, ALR2 and expressed human AKR1B1 can be found in the supporting information.
(§1) The newly synthesized N-substitute thiosemicarbazones (3a-o) were dissolved in 100% DMSO and diluted with deionized water, keeping the DMSO concentration equal to 0.1% in the assay.
The expression plasmid for aldose reductase (pDONR223_AKR1B1_WT) was gift from Addgene in stable culture. Streaking of this culture has been carried out on LB Agar plate then incubated overnight, after growth of colonies , inoculation was performed in LB medium then incubated this medium in shaking incubator at 37 °C. After 48 hours turbidity was measured when OD=0.6 then some of bacterial growth was prepared as 50% glycerol stock. Others are subjected to plasmid isolation following method Miniprep. Meanwhile E. Coli BL21 De3 cells were made competent then transformation with extracted plasmid (AKR1B1) had been carried out heat shock method. Transformed cell ( E.Coli BL21 DE3+AKR1B1) were grown in 37 °C in shaking incubator for 48 hr. The selection for transformed cells was carried out with the help of antibiotic (spectinomycin 50µg/ml). […] For the expression of aldose reductase , E.coli BL21DE3 were induced with of IPTG(Isopropyl-d-thiogalactopyranoside)[3]. […] The expressed enzyme was stabilized by addition 10 mM Tris–HCl buffer, 0.5 mM EDTA, 5 mM β-marcaptoethanol at pH 8.0 and 20% (v/v) glycerol. Cells were lysed with lysis buffer and then precipitation with ammonium sulfate up to 80% saturation was done . the expressed enzyme was dialyzed overnight against tris buffer. Protein quantification was performed following Bradford protein assay. Aliqoutes were stored at -80 refrigerator.

ALR2 = target: T2, ALR2 (Bos taurus, UniProt P16116); assay: ALR2 enzyme inhibition assay (enzyme extracted from calf lenses); type: biochemical, bovine; details: for IC50: bovine lens ALR2, substrate DL-glyceraldehyde, mean ± SEM of three measurements
T2 construct: from tissue; host or cells: calf eye lenses
Method: Compounds 3a-o were tested against ALR2 to evaluate their inhibitory potential against aldose reductase whereas selectivity was determined via performing ALR1 inhibition assay. For the enzyme inhibition assay, ALR2 and ALR1 were extracted from bovine sources (ALR2 from eyes and ALR1 from kidneys). Moreover, inhibitions studies were also carried out on the expressed ALR2 (human AKR1B1) and inhibition data for ALR2- bovine source and expressed enzyme was compared and analyzed. The protocols for enzyme extraction and expression in the bacterial system are included in the section of “Supporting information”. […] For the purpose of comparison and validation of enzyme inhibition data, these compounds were tested against human AKR1B1 (hAKR1B1) expressed in E. coli BL21 (DE3).
(§2) For the determination of enzyme activity of ALR1 and ALR2, 100 µL of reaction mixture was composed of 20 µL of buffer (100 mM sodium phosphate, pH 6.2), 30 µL of enzyme extract, 20 µL of substrate (10 mM), 20 µL of cofactor (0.1 mM of NADPH) and 10 µL of test compound (1 mM)[6],[21]. The reaction mixture without cofactor was incubated at 32°C for 10 min, then the enzymatic reaction was initiated with the addition of NADPH and monitored for 5 minutes. Similar protocols were followed for ALR1 and ALR2, however the substrate was different for each enzyme, with sodium-D-glucoronate and DL-glyceraldehyde used as the substrates for the ALR1 and ALR2 assays, respectively. […] In addition, similar protocols were adopted for human AKR1B1 that was expressed in E. coli BL21 (DE3), though the determined protein concentration was 12 µg/mL for the expressed enzyme. Detailed protocols for the preparation of ALR1, ALR2 and expressed human AKR1B1 can be found in the supporting information.
as §1
The extraction of ALR2 was carried out from calf lenses via adopting method described in
in (Hayman and Kinoshita 1965) with little modification. The lenses were obtained from slaughterhouse immediately after calf’s slaughtering and stored at -20^◦C until further use. These lense (150-170g) were subjected to homogenization with about three times volume of cold distilled water and then centrifugation was carried out for the homogenate at 10,000 x g for 14 minutes for removal of insoluble lipids particles. Precipitates were discarded and supernatant layer was subjected to 40% saturation of ammonium sulphate and again centrifugation was performed with same parameters for 14 minutes and again precipitates were discarded. […] In the last step, the supernatant was subjected to 75% of saturation with ammonium sulphate to obtain ALR2. Now, the precipitates were collected instead supernatant because precipitated protein was the expected desired ALR2. The precipitated enzyme (ALR2) was redissolved in 50mM solution of sodium chloride and dialyzed for 24 hours against 50mM solution (3.5L) of NaCl. The volume was recorded before and after dialysis, then dialyzed material was treated with liquid nitrogen. The extracted ALR2 was stored in 1mL Eppendorf tube in deep freezer at -80 ^◦C till further enzymatic studies.

[1] = DPPH radical scavenging activity; details: 100 µM compound, methanolic DPPH 0.025 mg/mL, 517 nm
Method: DPPH (2,2-diphenyl-1-picrylhydrazyl) was used to explore the free radical quenching ability of 3a-o so as to provide a gauge of their antioxidant potential. The experiment was conducted according to a previously reported protocol with slight modifications. Percent free radical scavenging activities (% FRSA) of 3a-o were determined by spectrophotometric analysis at 517 nm using a homogenous mixture of methanolic DPPH (0.025 mg/mL) and a 100 µM solution of the tested compound, with ascorbic acid used as a positive control (Fig. 3).

ALR1 = target: T3, ALR1 (Bos taurus, UniProt Q3ZCJ2); assay: ALR1 enzyme inhibition assay (enzyme extracted from calf kidneys); type: biochemical, bovine; details: for inhibition at 100 µM: bovine kidney ALR1, 100 µM inhibitor, read-out: I (%, 100 µM) (ALR1)
T3 construct: The calf’s kidneys were obtained after slaughtering and dissection; from tissue; host or cells: calf kidneys
Method: Compounds 3a-o were tested against ALR2 to evaluate their inhibitory potential against aldose reductase whereas selectivity was determined via performing ALR1 inhibition assay. For the enzyme inhibition assay, ALR2 and ALR1 were extracted from bovine sources (ALR2 from eyes and ALR1 from kidneys). Moreover, inhibitions studies were also carried out on the expressed ALR2 (human AKR1B1) and inhibition data for ALR2- bovine source and expressed enzyme was compared and analyzed. The protocols for enzyme extraction and expression in the bacterial system are included in the section of “Supporting information”. […] For the purpose of comparison and validation of enzyme inhibition data, these compounds were tested against human AKR1B1 (hAKR1B1) expressed in E. coli BL21 (DE3). We found a similar pattern of enzyme inhibition for the synthesized compounds against extracted enzyme (ALR2) as well as expressed enzyme (hAKR1B1).
as §2, §1
The calf’s kidneys were obtained after slaughtering and dissection, dissolved in 3 volumes of sodium phosphate buffer (10mM) which is composed of 2.0 mM EDTA, 2.5mM β-mercaptoethanol, 0.25M solution of sucrose at pH 7.25. First, the homogenisation was carried out then centrifugation of the homogenate was performed at 12000 x g at 0-2^◦C for 30 minutes. The precipitates containing insoluble lipids were discarded and the collected supernatant layer was treated with 40% saturation of ammonium sulphate. This liquid mixture was subjected to centrifugation at 11000 x g at 0-2^◦C for 30 minutes. Now, precipitates were again discarded and supernatant was collected and treated with 50% ammonium sulphate and procedure was repeated in the same manner as in previous step. In the last step, the saturation of ammonium sulphate was increased up to 75% and supernatant was subjected to same parameter of centrifugation. At this final step, precipitates were obtained and supernatant layer was discarded. The obtained material of precipitates was composed of ALR1and redissolved in initial buffer that was used during homogenisation. Finally, material was dialyzed overnight with same buffer system. The dialyzed fractions containing ALR1 were stored at -80^◦C for further use[5].

T3 sequence (Q3ZCJ2 whole entry): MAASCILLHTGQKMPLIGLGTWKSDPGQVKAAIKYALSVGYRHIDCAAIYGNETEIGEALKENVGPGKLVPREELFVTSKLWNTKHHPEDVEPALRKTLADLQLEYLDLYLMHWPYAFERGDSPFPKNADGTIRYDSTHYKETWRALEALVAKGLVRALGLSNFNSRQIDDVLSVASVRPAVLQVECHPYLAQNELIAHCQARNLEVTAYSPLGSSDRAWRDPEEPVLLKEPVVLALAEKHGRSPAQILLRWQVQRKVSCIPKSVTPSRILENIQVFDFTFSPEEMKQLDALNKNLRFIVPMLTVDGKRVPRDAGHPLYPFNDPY

IC50 (human AKR1B1 (hAKR1B1))	melting point	IC50 (ALR2)	IC50 (ALR1; bovine kidney ALR1, substrate sodium-D-glucoronate, mean ± SEM of three measurements)	inhibition at 100 µM (ALR1)	inhibition at 100 µM (human AKR1B1 (hAKR1B1); human AKR1B1 expressed in E. coli, 100 µM inhibitor, read-out: I (%, 100 µM) (AKR1B1))	inhibition at 100 µM (ALR2; bovine lens ALR2, 100 µM inhibitor, read-out: I (%, 100 µM) (ALR2) (converted))	Structure (SMILES)	% FRSA (percent free radical scavenging activity) [1]
3.89 ± 0.0034 µM	178 to 180 °C	2.99 ± 0.0021 µM	2.83 ± 0.0034 µM				CC(C)(C)c1cc(C=NNC(=S)Nc2ccccc2)c(O)c(C(C)(C)C)c1 [Compound 3a, 2-(3,5-di-tert-butyl-2-hydroxybenzylidene)-N-phenylhydrazinecarbothioamide]	79.41%
3.04 ± 0.0034 µM	184 to 186 °C	3.12 ± 0.0031 µM		4.27 to 26.2%			CC(C)(C)c1cc(C=NNC(=S)NCc2ccc(Cl)cc2)c(O)c(C(C)(C)C)c1 [Compound 3f, N-(4-chlorobenzyl)-2-(3,5-di-tert-butyl-2-hydroxybenzylidene)hydrazine carbothioamide]	82.98%
	174 to 176 °C			≤ 29.9%	24.9%	≤ 39.1%	CC(C)(C)c1cc(C=NNC(=S)NCCc2ccccc2)c(O)c(C(C)(C)C)c1 [Compound 3o, 2-(3,5-di-tert-butyl-2-hydroxybenzylidene)-N-phenethylhydrazinecarbothioamide]	83.02%
2.75 ± 0.003 µM	193 to 195 °C	4.01 ± 0.0021 µM		4.27 to 26.2%			CC(C)(C)c1cc(C=NNC(=S)Nc2cccc(Cl)c2Cl)c(O)c(C(C)(C)C)c1 [Compound 3j, 2-(3,5-di-tert-butyl-2-hydroxybenzylidene)-N-(2,3-dichlorophenyl)hydrazine carbothioamide]	89.75%
